Assay results reported in patent US7247306B2, “Bacteria strain and bacteriocin produced therefrom” (Universite Laval, priority 2004, dated 2007).
Marks after values point to notes of the source that are not given here.

How the values were obtained:
Assay type in all cases: cell-based
[1] = tested on: Carnobacterium divergens; assay: Agar diffusion method, spectrum of activity; parameters: key to Sensitivity to divergicin M35: +, inhibition;; −, no inhibition; conditions: strain ATCC 385
Method: (§1) Bacteria stocks were maintained as 20% glycerol stock, at −80° C., for further use. Carnobacterium sp. and Lactococcus sp. strains were cultivated in MRS broth comprising 0.1% (vol/vol) Tween 80® in aerobic condition at 30° C., as currently known in the art. Listeria monocytogenes and Escherichia coli were grown in tryptic soy broth (TSB), supplemented with 0.6% (wt/vol) yeast extract in aerobic conditions, at 37° C., while Listeria innocua and L. ivanovii were re-cultivated in TSB with yeast extract and incubated aerobically at 30° C. Streptococcus thermophilus, Propionibacterium sp. and pediococci were activated in MRS broth at 37° C. under aerobic condition. All lactobacilli and bifidobacteria were grown in MRS broth supplemented with 0.05% (wt/vol) L-cysteine-hydrochloride and incubated anaerobically in Oxoid jars using an atmosphere generation system, at 37° C. In prior experiments, bacteria strains were sub-cultured at least three times (1%, vol/vol) in respective media at 24 h intervals.
(§2) The antibacterial activity of bacteriocin produced by C. divergens M35 was tested toward a variety of bacteria species, listed in Table 1, and belonging to genus Listeria, Lactobacillus, Streptococcus, Lactococcus, Propionibacterium and Escherichia, and was evaluated following the agar diffusion method, as is well known to those skilled in the art.

[2] = tested on: Carnobacterium piscicola; assay: Agar diffusion method, spectrum of activity; parameters: key to Sensitivity to divergicin M35: +, inhibition;; −, no inhibition; conditions: strain ATCC 386
Method: as §1, §2

[3] = tested on: Escherichia coli; assay: Agar diffusion method, spectrum of activity; parameters: key to Sensitivity to divergicin M35: +, inhibition;; −, no inhibition
Method: as §1, §2

[4] = tested on: L. grayi; assay: Agar diffusion method, spectrum of activity; parameters: key to Sensitivity to divergicin M35: +, inhibition;; −, no inhibition; conditions: strain LSD 13
Method: as §1, §2

[5] = tested on: L. innocua; assay: Agar diffusion method, spectrum of activity; parameters: key to Sensitivity to divergicin M35: +, inhibition;; −, no inhibition; conditions: strain HPB13
Method: as §1, §2

[6] = tested on: L. murayi; assay: Agar diffusion method, spectrum of activity; parameters: key to Sensitivity to divergicin M35: +, inhibition;; −, no inhibition; conditions: strain LSD 14
Method: as §1, §2

[7] = tested on: L. seeligeri; assay: Agar diffusion method, spectrum of activity; parameters: key to Sensitivity to divergicin M35: +, inhibition;; −, no inhibition; conditions: strain LSD 11
Method: as §1, §2

[8] = tested on: L. welshimeri; assay: Agar diffusion method, spectrum of activity; parameters: key to Sensitivity to divergicin M35: +, inhibition;; −, no inhibition; conditions: strain LSD 12
Method: as §1, §2

[9] = tested on: Listeria monocytogenes; assay: Agar diffusion method, spectrum of activity; parameters: key to Sensitivity to divergicin M35: +, inhibition;; −, no inhibition
Method: as §1, §2

[10] = tested on: L. innocua HPB13; assay: Bacteriocin activity during growth of C. divergens M35 in MRS broth, critical-dilution micromethod; conditions: 30° C.
Method: Protein concentration was determined as known in the art. Two-fold serial dilutions of 125 μl of tested sample were transferred into wells with a flat bottom microtest™ polystyrene microplate (96-well microtest, Becton Dickinson Labware, Franklin Lakes, N.J., USA), previously filled with 125 μl tryptic soy broth supplemented with 0.6% yeast extract (wt/vol). Each well was inoculated with 50 μl of 1000-fold diluted overnight culture of L. innocua HPB13 (final concentration of approximately 10^6 cfu/ml) and incubated at 30° C. for 18 h. Optical densities (650 nm) were then measured using a Thermo-max molecular device spectrophotometer (OPTI-Resources Inc., Quebec, PQ, Canada). The bacteriocin activity, expressed in arbitrary units per milliliter (AU/ml), was defined as the highest bacteriocin dilution showing complete inhibition of the indicator strain (optical density equals to that in un-inoculated media).
A C. divergens M35 culture were diluted (1% vol/vol) in peptone water (0.1%), plated on MRS agar supplemented with 0.1% vol/vol Tween 80® and incubated aerobically at 30° C. for 24 h. Bacterial viable counts, bacteriocin activity and pH were determined at 2 h intervals. Bacteriocin activity was determined according to the critical-dilution micromethod described hereinabove, using 5 ml of culture supernatant, separated by centrifugation and heated at 100° C.

## divergicin M35: class IIa bacteriocin of 43 amino acids, 4518 Da, produced by Carnobacterium divergens strain M35 (SEQ ID NO: 1) (TKYYGNGVYCNSKKCWVDWGTAQGCIDVVIGQLGGGIPGKGKC; listed as Carnobacterium divergens)
[1]
  Diameter of inhibition zone (mm): 15.0 ± 1 mm
  Sensitivity to divergicin M35: +
[2]
  Diameter of inhibition zone (mm): 17.5 ± 1 mm
  Sensitivity to divergicin M35: +
[3]; Escherichia coli 22
  Sensitivity to divergicin M35: −
[3]; Escherichia coli 43
  Sensitivity to divergicin M35: −
[3]; Escherichia coli strains tested
  effect on Gram-negative strains (in words): not affected
[4]
  Diameter of inhibition zone (mm): 15.0 ± 1 mm
  Sensitivity to divergicin M35: +
[5]
  Diameter of inhibition zone (mm): 21 ± 0.5 mm
  Sensitivity to divergicin M35: +
[6]
  Diameter of inhibition zone (mm): 17.5 ± 1 mm
  Sensitivity to divergicin M35: +
[7]
  Diameter of inhibition zone (mm): 13.5 ± 1 mm
  Sensitivity to divergicin M35: +
[8]
  Diameter of inhibition zone (mm): 20 ± 0.5 mm
  Sensitivity to divergicin M35: +
[9]; in every case (sensitive Listeria strains)
  time the antibacterial activity (diameter of the inhibition zone) remained stable: ≥ 36 h
[9]; of the 24 tested strains of L. monocytogenes
  number of strains sensitive to divergicin M35: 22
[9]; strain ATCC 19111
  Sensitivity to divergicin M35: +
[9]; strain ATCC 19112
  Sensitivity to divergicin M35: +
[9]; strain ATCC 19114
  Sensitivity to divergicin M35: +
[9]; strain ATCC 19115
  Sensitivity to divergicin M35: +
[9]; strain ATCC 35152
  Sensitivity to divergicin M35: +
[9]; strain LSD 15
  Sensitivity to divergicin M35: −
  sensitivity to divergicin M35 (in words): resistant
[9]; strain LSD 332
  Diameter of inhibition zone (mm): 18.5 ± 1 mm
  Sensitivity to divergicin M35: +
[9]; strain LSD 336
  Diameter of inhibition zone (mm): 16.5 ± 0.5 mm
  Sensitivity to divergicin M35: +
[9]; strain LSD 338
  Diameter of inhibition zone (mm): 18.0 ± 0.5 mm
  Sensitivity to divergicin M35: +
[9]; strain LSD 339
  Diameter of inhibition zone (mm): 19.0 ± 0.5 mm
  Sensitivity to divergicin M35: +
[9]; strain LSD 340
  Diameter of inhibition zone (mm): 17.0 ± 0.5 mm
  Sensitivity to divergicin M35: +
[9]; strain LSD 341
  Diameter of inhibition zone (mm): 13.0 ± 0.5 mm
  Sensitivity to divergicin M35: +
[9]; strain LSD 346
  Diameter of inhibition zone (mm): 17.5 ± 1 mm
  Sensitivity to divergicin M35: +
[9]; strain LSD 348
  Diameter of inhibition zone (mm): 17.5 ± 1 mm
  Sensitivity to divergicin M35: +
[9]; strain LSD 523
  Diameter of inhibition zone (mm): 10 ± 1^b mm
  Sensitivity to divergicin M35: +
[9]; strain LSD 524
  Diameter of inhibition zone (mm): 22.0 ± 1^b mm
  Sensitivity to divergicin M35: +
[9]; strain LSD 525
  Sensitivity to divergicin M35: −
  sensitivity to divergicin M35 (in words): resistant
[9]; strain LSD 526
  Diameter of inhibition zone (mm): 21.0 ± 1 mm
  Sensitivity to divergicin M35: +
[9]; strain LSD 529
  Diameter of inhibition zone (mm): 14.5 ± 0.5 mm
  Sensitivity to divergicin M35: +
[9]; strain LSD 530
  Diameter of inhibition zone (mm): 19.0 ± 1 mm
  Sensitivity to divergicin M35: +
[9]; strain LSD 531
  Diameter of inhibition zone (mm): 18.5 ± 1 mm
  Sensitivity to divergicin M35: +
[9]; strain LSD 532
  Diameter of inhibition zone (mm): 20.0 ± 0.5^b mm
  Sensitivity to divergicin M35: +
[9]; strain LSD 535
  Diameter of inhibition zone (mm): 19.0 ± 0.5 mm
  Sensitivity to divergicin M35: +
[9]; strain LSD 538
  Diameter of inhibition zone (mm): 20.0 ± 0.5 mm
  Sensitivity to divergicin M35: +
[10]; after 10 h of growth
  biological activity of divergicin M35 in culture: approximately 18000 AU/ml
[10]; after 14 h of growth
  biological activity of divergicin M35 in culture, maximum: 65000 AU/ml
